The nature of data set [1]: Lipid binding by fluorescence spectroscopy. The settings on record: Ri 0 (buffer, no lipids), 2 μM. On the procedure:
The lipid binding properties of the peptides synthesized in Section 6, supra, were tested by fluorescence measurements with labeled peptides, in the present case Tryptophane (Trp or W) or Naphtylalanine (Nal). The fluorescence spectra were recorded on a Fluoromax from Spex (Jobin-Yvon) equipped with a Xenon lamp of 150 W, two monochromators (excitation and emission), a photomultiplier R-928 for detection sensitive in the red up to 850 nm and a thermoelectric magnetic stirred cell holder. Quartz Suprasil cuvettes were used for measurements in the micromolar concentration range. A device of variable slits (from 0.4 to 5 nm) allows modulation of the incident and emitted intensities according to the concentration of peptide used. The reported values are in general the average of between 2 to 4 spectra. The peptide concentration is determined by absorption spectrometry on a Philips PU 8800 using the absorption band of the Trp (ε280 nm=5,550 M^−1 cm^−1 in Tris buffer) or the Nal (ε224 nm =92,770 M^−1 cm^−1 in methanol)
Fluorescence spectra of the peptides were recorded between 290 nm and 450 nm in Tris-HCl buffer (20 mM, pH=7.5), in the presence and absence of lipidic vesicles. The small unilamellar vesicles were formed after rehydration in buffer of the lyophilized phospholipids, dispersion and tip sonification under a N2 stream. The lipids used were either Egg PC/Chol. (20:1) or POPC/Chol. (20:1). The spectra were recorded at a peptide concentration of 2 μM and at a temperature of 37° C. The fluorescence reference standard in the case of Trp was N-acetyltryptophanylamide (NATA).
Lipid binding studies were done through progressive lipidic vesicle addition to the peptide in solution at 2 μM (slits: 5 nm in excitation and 1.5 nm in emission). Dilution effects were taken into account for the fluorescence intensity determination. The lipid concentrations were varied from 10 to 600 μM and the molar ratio of lipid to peptide (Ri) was varied from 5 to 300. The wavelength of excitation was set at 280 nm for both Trp and Nal.
The data were directly recorded and treated by an IBM-PC linked to the spectrofluorimeter through the DM3000F software from Spex. The spectra were corrected by substraction of the solvent contribution and by application of a coefficient given by the constructor taking into account the variation of the photomultiplier response versus the wavelength.
The fluorescence spectra of the peptides were characterized by the wavelength at their maximum of fluorescence emission and by their quantum yield compared to NATA in the case of peptides labeled with a tryptophane. The process of binding to lipids was analyzed by calculating the shift of the wavelength at the maximum of fluorescence emission, (λmax), and the variation of the relative fluorescence intensity of emission versus the lipid concentration. The relative fluorescence intensity is defined as the following ratio: (I-I0)λmax/I0λmax. I and I0 are both measured at the (λmax) corresponding to the initial free state of the peptide, i.e., without lipids. I is the intensity at a defined lipid to peptide ratio and I0 is the same parameter measured in absence of lipids. The absence of these variations is relevant of the absence of interactions of the peptides with the lipids.

The subject of another data set is HDL cholesterol. Put plainly: HDL cholesterol in rabbits after injection of phospholipid/peptide complex. Type of data set: in vivo, rabbit. The settings on record: 10 mg/kg i.v. as phospholipid complex. On the procedure: Small discoidal particles consisting of phospholipid (DPPC) and peptide 146 (SEQ ID NO:146) were prepared following the cholate dialysis method. The phospholipid was dissolved in chloroform and dried under a stream of nitrogen. The peptide was dissolved in buffer (saline) at a concentration of 1-2 mg/ml. The lipid film was redissolved in buffer containing cholate (43° C.) and the peptide solution was added at a 3-1 phospholipid/peptide ratio. The mixture was incubated overnight at 43° C. and then dialyzed at 43° C. (24 hr.), room temperature (24 hr.) and 4° C. (24 hr.), with three changes of buffer (large volumes) at temperature point. The complexes were filter sterilized (0.22μ) for injection and storage at 4° C.
Male New Zealand White rabbits (2.5-3 kg) were injected intravenously with a dose of phospholipid/peptide complex (8 mg/kg bodyweight peptide 146 (SEQ ID NO:146) or 10 mg/kg bodyweight ApoA-I, expressed as peptide or protein content) in a single bolus injection not exceeding 10-15 ml. The animals were slightly sedated before the manipulations. Blood samples (collected on EDTA) were taken before and 5, 15, 30, 60, 240 and 1440 minutes after injection. The hematocrit (Hct) was determined for each sample. Samples were aliquoted and stored at −20° C. before analysis.
Plasma Lipids. The total plasma cholesterol, plasma triglycerides and plasma phospholipids were determined enzymatically using commercially available assays according to the manufacturer's protocols (Boehringer Mannheim, Mannheim, Germany and Biomerieux, 69280, Marcy-l'étoile, France).
Lipoprotein Profiles. The plasma lipoprotein profiles of the fractions obtained after the separation of the plasma into its lipoprotein fractions were determined by spinning in a sucrose density gradient. The fractions were collected and in each individual fraction the phospholipid and cholesterol content was measured enzymatically.

Data set [2] can be described thus: Circular dichroism helicity determination. Type of data set: physicochemical. The settings on record: percent helicity; for He (%) TFE: 5 μM peptide, 90% vol TFE; for He (%) TFE / He (%) SUVs: 37° C.; for He (%) free: unbound peptide 5 μM in 5 mM phosphate buffer, pH 7.4, 37° C.; for He (%) SUVs: peptide-SUV complexes (20:1 EPC:Chol., Ri=30 and Ri=50); for He (%) mics: peptide-micelle complexes, Ri=100, 37° C. In outline: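 Far-UV CD (190–260 nm) at 37° C on 5 μM peptide in 5 mM phosphate pH 7.4, free, with EPC:Chol 20:1 SUVs (Ri 30 or 50), lysophosphatidylcholine micelles (Ri 100) or 90% TFE. Spectra converted to molar ellipticity per residue; helicity from 222 nm ellipticity or CONTIN fitting to reference spectra, ±5%.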
Background: Circular dichroism is widely used to follow secondary structure.

Data set [3] concerns the target T1, LCAT (purified from human plasma) (Homo sapiens, UniProt P04180).
T1 construct: from tissue; host or cells: human plasma
T1 sequence (P04180 25-440): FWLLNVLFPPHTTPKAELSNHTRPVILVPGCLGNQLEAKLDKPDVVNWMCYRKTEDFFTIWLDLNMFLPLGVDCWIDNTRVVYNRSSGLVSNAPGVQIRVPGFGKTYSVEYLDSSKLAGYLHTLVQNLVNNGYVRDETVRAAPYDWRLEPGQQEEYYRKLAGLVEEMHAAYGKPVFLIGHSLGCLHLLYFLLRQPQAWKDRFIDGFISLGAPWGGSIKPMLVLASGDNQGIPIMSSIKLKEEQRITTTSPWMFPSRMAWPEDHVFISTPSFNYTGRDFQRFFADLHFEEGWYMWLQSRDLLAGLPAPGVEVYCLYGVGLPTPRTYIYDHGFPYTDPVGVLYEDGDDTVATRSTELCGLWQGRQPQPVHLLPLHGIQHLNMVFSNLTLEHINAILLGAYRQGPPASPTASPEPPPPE
Put plainly: LCAT activation assay. The settings on record: LCAT activation as compared with native human ApoA-I (= 100%), equivalent masses. The class given is biochemical. In outline:
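Substrate SUVs of EPC or POPC with 14C-cholesterol (20:1 molar ratio), in 10 mM Tris, 0.14 M NaCl, 1 mM EDTA, pH 7.4, were preincubated with peptide or equal mass of plasma ApoA-I. Reaction started with human plasma LCAT; activation was measured as cholesterol-to-ester conversion relative to ApoA-I (100%).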

No end group written: not given here.

On to `CC(=O)N[C@@H](Cc1c[nH]c2ccccc12)C(N)=O` [NATA, N-acetyltryptophanylamide, reference compound], for which the “λmax (nm)” value in data set [1] stood at 350 nm.
Consider “Native ApoA-I: ApoA-I (isolated from human plasma), used as positive control; injected as phospholipid complex in rabbits”, for which the “Increase in HDL Cholesterol (%)” value in the data set on HDL cholesterol (5 min.) is listed as 19.3%; with HDL cholesterol (15 min.), 16%; in the data set with HDL cholesterol (60 min.) it was 15.8%; with HDL cholesterol (240 min.) it was −24.1%.
For PVLDLFRELWNELLEALKQKLK [peptide 15], in data set [2], the “He (%) TFE” value is 68%, the “He (%) free” value turned out to be 55%, the “He (%) SUVs” value stood at 64% and the “He (%) mics” value was 60%. Further, the “ACTIVITY (%) LCAT” value in data set [3] was 60%.
As for PVLDLFREWLNELLEALKQKLK [compound 37], in data set [2], the “He (%) TFE” value amounted to 73%, the “He (%) free” value amounted to 65%, the “He (%) SUVs” value is listed as 76% and the “He (%) mics” value was 75%. In addition, the “ACTIVITY (%) LCAT” value in data set [3] was determined as 29%.
Take PVLDLFRNLLEELLEALQKKLK [compound 66]: in data set [2], the “He (%) TFE” value was determined as 70%, the “He (%) free” value was found to be 64%, the “He (%) SUVs” value stood at 66% and the “He (%) mics” value was found to be 82%. For the same compound, the “ACTIVITY (%) LCAT” value in data set [3] is reported as 15%.
For the compound PVLDLFRNLLEKLLEALEQKLK [compound 49], in data set [2], the “He (%) TFE” value is reported as 57%, the “He (%) free” value came out at 57%, the “He (%) SUVs” value is 52% and the “He (%) mics” value is given as 65%. The “ACTIVITY (%) LCAT” value in data set [3] is given as 22%.
With PVLDWFRELLNELLEALKQKLK [compound 35], in data set [2], the “He (%) free” value is 49%, the “He (%) SUVs” value came to 61% and the “He (%) mics” value is given as 59%. In data set [3], the “ACTIVITY (%) LCAT” value is listed as 31%.
For PVLELFENLLERGLDALQKKLK [peptide 154], in data set [2], the “He (%) TFE” value was determined as 80%, the “He (%) free” value amounted to 13%, the “He (%) SUVs” value came to 25% and the “He (%) mics” value is reported as 76%. Moreover, in data set [3], the “ACTIVITY (%) LCAT” value came to 39%.
Consider PVLELFENLLERLGDALQKKLK [peptide 148], for which, in data set [2], the “He (%) TFE” value was 80%, the “He (%) free” value is 10%, the “He (%) SUVs” value was determined as 23% and the “He (%) mics” value was 76%. Also, the “ACTIVITY (%) LCAT” value in data set [3] amounted to 75%.
Take PVLELFENLLERLLDAWQKKLK [compound 164]: in data set [2], the “He (%) TFE” value was found to be 61%, the “He (%) free” value amounted to 37%, the “He (%) SUVs” value turned out to be 51% and the “He (%) mics” value is reported as 66%. Besides, the “ACTIVITY (%) LCAT” value in data set [3] is given as 24%.
As to PVLELFENLLERLLDWLQKKLK [compound 160], in data set [2], the “He (%) TFE” value was determined as 61%, the “He (%) free” value turned out to be 65%, the “He (%) SUVs” value was determined as 75% and the “He (%) mics” value is given as 73%. For the same compound, the “ACTIVITY (%) LCAT” value in data set [3] turned out to be 28%.
Consider PVLELFENLLERLWDALQKKLK [compound 163], for which, in data set [2], the “He (%) TFE” value was determined as 55%, the “He (%) free” value came out at 27% and the “He (%) mics” value was found to be 53%. Also, the “ACTIVITY (%) LCAT” value in data set [3] was 26%.
As for PVLELFENWLERLLDALQKKLK [compound 162], in data set [2], the “He (%) free” value is given as 68%, the “He (%) SUVs” value amounted to 81% and the “He (%) mics” value amounted to 83%. The “ACTIVITY (%) LCAT” value in data set [3] is given as 27%.
Consider VLDLFRELLNELLEALKQKLK [compound 67], for which, in data set [2], the “He (%) TFE” value is on record as 94%, the “He (%) free” value is recorded as 81%, the “He (%) SUVs” value amounted to 84% and the “He (%) mics” value was determined as 90%. The “ACTIVITY (%) LCAT” value in data set [3] amounted to 14%.

Source of the values: US7273848B2, “Apolipoprotein A-I agonists and their use to treat dyslipidemic disorders” (priority 1997, dated 2007).
